Source: patent US7312219B2, “Heteroaromatic inhibitors of fructose 1,6-bisphosphatase” (Metabasis Therapeutics, Inc., priority 1998, dated 2007)
Read-outs that look alike come from different tables or passages of the source.

Columns and labels:
Fasted Rats = test: Blood Glucose Lowering Following Intravenous Administration to Fasted Rats; type: in vivo, rat; conditions: Rattus norvegicus, iv; 18 h fasted Sprague Dawley rats, 10 mg/kg i.v., 1 hour, relative to saline-treated controls
Procedure: Inhibitors were disolved in water and the solution adjusted to neutrality with NaOH. Blood samples were obtained from the tail vein of conscious animals just prior to injection and after 1 hour. Blood glucose was measured using a HemoCue Inc. glucose analyzer according to the instructions of the manufacturer.

[1] = Estimation of the Oral Bioavailability of Phosphonic Acids and their Prodrugs; type: in vivo, rat; conditions: Sprague-Dawley, rat, urine; fasted rats, oral 10–50 mg/kg, 24 h urinary recovery of phosphonic acid, oral vs intravenous
Procedure: Phosphonic acids were dissolved in water, and the solution adjusted to neutrality with sodium hydroxide. Prodrugs were dissolved in 10% ethanol/90% polyethlene glycol (mw 400). Compound was administered by oral gavage to 18-hour fasted Sprague-Dawley rats (220–250 g) at doses ranging from 10–50 mg/kg. The rats were subsequently placed in metabolic cages and urine was collected for 24 hours. The quantity of phosphonic acid excreted into urine was determined by HPLC analysis as described in Example G. In a separate study, urinary recovery was determined following intravenous (tail vein) administration of compound (in the case of the prodrugs, the appropriate parent phosphonic acid was administered i.v.).

Human adenosine kinase = molecular target: T1, Human adenosine kinase (Homo sapiens, UniProt P55263); test: AMP Site/Enzyme Selectivity: Adenosine Kinase; type: biochemical; conditions: read-out: Adenosine Kinase (inh.)
T1 construct: made in house; host or cells: E. coli

[2] = Analysis of Drug Levels and Liver Accumulation in Rats; type: in vivo, rat; conditions: fasted rats, 10 mgs/kg i.v., one hour post injection, liver
Procedure: The compound was dissolved in water and the solution adjusted to neutrality with NaOH. One hour post injection rats were anesthetized with halothane and a liver biopsy (approx. 1 g) was taken as well as a blood sample (2 ml) from the posterior vena cava. A heparin flushed syringe and needle were used for blood collection. The liver sample was immediately homogenized in ice-cold 10% perchloric acid (3 ml), centrifuged, and the supernatant neutralized with ⅓rd volume of 3 M KOH/3 M KHCO3. […] Plasma was prepared from the blood sample by centrifugation and extracted by addition of methanol to 60% (v/v). The methanolic extract was clarified by centrifugation and filtration and then analyzed by HPLC as described above.

[3] = molecular target: T2, Adenylate Kinase (rabbit muscle) (Oryctolagus cuniculus, UniProt P00569); test: AMP Site/Enzyme Selectivity: Adenylate Kinase; type: biochemical; conditions: read-out: Adenylate Kinase (inh.)
T2 construct: Enzyme (rabbit muscle) was purchase from Sigma; purchased Sigma; host or cells: rabbit muscle
T2 sequence (P00569 1-194): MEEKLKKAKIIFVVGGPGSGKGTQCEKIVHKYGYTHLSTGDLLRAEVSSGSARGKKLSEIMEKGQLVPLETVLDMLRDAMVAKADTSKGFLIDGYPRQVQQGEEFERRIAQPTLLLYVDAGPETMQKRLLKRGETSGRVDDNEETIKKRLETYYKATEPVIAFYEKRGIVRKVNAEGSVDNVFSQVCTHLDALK

Porcine heart AMPDA = test: AMP Site/Enzyme Selectivity: Adenosine Monophosphate Deaminase; type: biochemical; conditions: read-out: AMP Deaminase (inh.)
[4] = molecular target: T3, Glycogen Phosphorylase (rabbit muscle) (Oryctolagus cuniculus, UniProt P00489); test: AMP Site/Enzyme Selectivity: Glycogen Phosphorylase; type: biochemical; conditions: activation; read-out: Glycogen Phosphorylase (act.)
T3 construct: Enzyme (rabbit muscle) was purchased from Sigma; purchased Sigma; host or cells: rabbit muscle
T3 sequence (P00489 2-843 limits assumed): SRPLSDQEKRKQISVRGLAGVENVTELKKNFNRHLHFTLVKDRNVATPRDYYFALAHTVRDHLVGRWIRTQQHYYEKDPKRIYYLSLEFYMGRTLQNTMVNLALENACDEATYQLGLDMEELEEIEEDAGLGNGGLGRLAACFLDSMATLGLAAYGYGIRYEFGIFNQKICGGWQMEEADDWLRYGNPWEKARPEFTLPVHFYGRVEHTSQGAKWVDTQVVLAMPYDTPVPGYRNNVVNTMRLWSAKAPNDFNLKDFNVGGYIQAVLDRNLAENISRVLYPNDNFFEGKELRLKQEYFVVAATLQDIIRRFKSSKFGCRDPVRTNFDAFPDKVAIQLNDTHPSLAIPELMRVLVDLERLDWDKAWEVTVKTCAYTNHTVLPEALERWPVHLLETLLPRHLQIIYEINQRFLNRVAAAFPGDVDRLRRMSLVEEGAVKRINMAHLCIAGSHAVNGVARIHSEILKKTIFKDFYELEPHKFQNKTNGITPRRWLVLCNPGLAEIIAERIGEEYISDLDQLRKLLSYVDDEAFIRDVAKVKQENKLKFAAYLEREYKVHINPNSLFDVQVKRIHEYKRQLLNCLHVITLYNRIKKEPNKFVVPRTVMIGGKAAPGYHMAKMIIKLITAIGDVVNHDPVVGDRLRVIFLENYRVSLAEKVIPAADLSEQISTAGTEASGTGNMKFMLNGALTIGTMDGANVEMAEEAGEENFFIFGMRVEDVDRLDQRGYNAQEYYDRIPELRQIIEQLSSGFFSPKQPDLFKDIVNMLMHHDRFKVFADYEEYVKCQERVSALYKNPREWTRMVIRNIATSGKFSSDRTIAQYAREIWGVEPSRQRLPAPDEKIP

Fasted Rat = test: Glucose Lowering Following Oral Administration to the Fasted Rat; type: in vivo; conditions: oral gavage, 18-hour fasted rats, dose 90 mg/kg, time point 3 h, relative to saline controls
Procedure: Compounds were administered by oral gavage to 18-hour fasted, Sprague Dawley rats (250–300 g, n =3/4/group). Phosphonic acids were prepared in deionized water, and the solution adjusted to neutrality with solidum hydroxide. Prodrugs were dissolved in polyethylene glycol (mw 400). […] The table below indicates the maximum glucose lowering achieved relative to control animals dosed with saline.

[5] = tested on: Gluconeogenesis in Rat Hepatocytes; test: Inhibition of Gluconeogenesis in Rat Hepatocytes; type: cell-based; conditions: Hepatocyte, 10 mM lactate, 1 mM pyruvate, 1 hour incubation, read-out: IC50 Glucose Production
Procedure: Hepatocytes were prepared from overnight fasted Sprague-Dawley rats (250–300 g) according to the procedure of Berry and Friend (Berry, M. N., Friend, D. S., 1969, J. Cell. Biol. 43, 506–520) as modified by Groen (Groen, A. K., Sips, H. J., Vervoorn, R. C., Tager, J. M. , 1982, Eur. J. Biochem. 122, 87–93). Hepatocytes (75 mg wet weight/ml) were incubated in 1 ml Krebs-bicarbonate buffer containing 10 mM Lactate, 1 mM pyruvate, 1 mg/ml BSA, and test compound concentrations from 1 to 500 μM. Incubations were carried out in a 95% oxygen, 5% carbon dioxide atmosphere in closed, 50-ml Falcon tubes submerged in a rapidly shaking water bath (37° C.). After 1 hour, an aliquot (0.25 ml) was removed, transferred to an Eppendorf tube and centrifuged. 50 μl of supernatant was then assayed for glucose content using a Sigma Glucose Oxidase kit as per the manufacturer's instructions.

human liver FBPase = molecular target: T4, human liver FBPase (Homo sapiens, UniProt P09467); test: Inhibition of Human Liver FBPase; type: biochemical; conditions: read-out: IC50 (hlFBPase)
T4 construct: made in house; host or cells: E. coli BL21
T4 sequence (P09467 2-338 limits assumed): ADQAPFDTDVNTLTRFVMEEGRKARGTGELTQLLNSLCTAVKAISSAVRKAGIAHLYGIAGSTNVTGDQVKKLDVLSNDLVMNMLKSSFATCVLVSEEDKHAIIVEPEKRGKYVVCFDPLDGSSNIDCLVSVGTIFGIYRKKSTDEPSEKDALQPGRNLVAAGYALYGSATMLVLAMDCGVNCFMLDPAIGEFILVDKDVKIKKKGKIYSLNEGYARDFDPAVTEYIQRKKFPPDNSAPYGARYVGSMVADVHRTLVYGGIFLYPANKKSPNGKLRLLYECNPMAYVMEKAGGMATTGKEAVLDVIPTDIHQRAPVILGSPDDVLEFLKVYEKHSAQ

rat liver FBPase = molecular target: T5, rat liver FBPase (Rattus norvegicus, UniProt P19112); test: Inhibition of Rat Liver FBPase
T5 sequence (P19112 2-363 limits assumed): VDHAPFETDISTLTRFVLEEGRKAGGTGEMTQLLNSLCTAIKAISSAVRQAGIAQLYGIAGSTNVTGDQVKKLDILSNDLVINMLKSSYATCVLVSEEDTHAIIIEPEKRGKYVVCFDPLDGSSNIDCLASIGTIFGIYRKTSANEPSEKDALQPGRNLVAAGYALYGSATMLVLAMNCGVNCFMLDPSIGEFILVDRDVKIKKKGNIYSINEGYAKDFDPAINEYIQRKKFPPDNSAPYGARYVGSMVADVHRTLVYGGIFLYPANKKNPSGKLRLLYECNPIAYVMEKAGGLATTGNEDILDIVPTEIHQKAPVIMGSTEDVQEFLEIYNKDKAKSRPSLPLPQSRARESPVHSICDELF

T1 sequence (P55263 1-345 isoform P55263-2): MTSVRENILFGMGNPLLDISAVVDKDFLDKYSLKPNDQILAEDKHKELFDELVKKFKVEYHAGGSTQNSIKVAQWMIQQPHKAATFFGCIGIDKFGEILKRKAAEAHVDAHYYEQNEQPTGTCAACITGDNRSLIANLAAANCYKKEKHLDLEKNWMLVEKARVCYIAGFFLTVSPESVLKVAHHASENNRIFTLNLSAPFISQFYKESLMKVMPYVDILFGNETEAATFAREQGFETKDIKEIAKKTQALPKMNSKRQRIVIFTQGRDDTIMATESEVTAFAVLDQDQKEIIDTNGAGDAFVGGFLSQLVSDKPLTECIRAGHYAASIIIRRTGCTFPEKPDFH

bioavailability [1] [%] | IC50 (Human adenosine kinase) [µM] | IC50 [3] [µM] | IC50 (Porcine heart AMPDA) [µM] | EC50 [4] [µM] | Compound | inhibition in vivo at 10 mg/kg (Fasted Rats) [%] | IC50 (human liver FBPase) [µM] | also measured
21 | > 10 | > 500 | > 10 | > 100 | CC(C)Cc1oc(N)nc1-c1ccc(P(=O)(O)O)o1 [Compound 10.1, 2-amino-5-isobutyl-4-[2-(5-phosphono)furanyl]oxazole] | 51 |  | Liver Conc. [2]: 35.6 ± 4.2 nmol/g; % Glucose Lowering (maximum) (Fasted Rat): 55%
4 | > 10 | > 500 | > 10 | > 100 | CC(C)Cc1sc(N)nc1-c1ccc(P(=O)(O)O)o1 [Compound 3.1, 2-amino-5-isobutyl-4-[2-(5-phosphono)furanyl]thiazole] | 65 |  | IC50 [5]: 2.5 µM
 |  |  |  |  | Nc1ncnc2c1ncn2[C@@H]1O[C@H](COP(=O)(O)O)[C@@H](O)[C@H]1O [AMP, reference compound] |  | 1 | IC50 (rat liver FBPase; read-out: IC50 (rlFBPase)): 20 µM
 |  |  |  |  | CCc1cc(CC)c(-c2ccc(P(=O)(O)O)o2)nc1N [Compound 15.4, 2-amino-3,5-diethyl-6-[2-(5-phosphono)furanyl]pyridine] |  |  | melting point: 217 to 218 °C
 |  |  |  |  | CC(C)Cc1[se]c(N)nc1-c1ccc(P(=O)(O)O)o1 [Compound 3.70, 2-Amino-5-isobutyl-4-[2-(5-phosphono)furanyl]selenazole] |  | 0.04 | IC50 (rat liver FBPase): 0.15 µM
